Test results taken from patent US6989263B1, “Method for identifying and using compounds that inactivate HIV-1 and other retroviruses by attacking highly conserved zinc fingers in the viral nucleocapsid protein” (The United States of America as represented by the …, priority 1994, dated 2006).

Experiments:
HIV-1 (MN) p7NC = biological target: T1, HIV-1 (MN) p7NC (Human immunodeficiency virus type 1 group M subtype B, UniProt P05888); experiment: Intrinsic Trp-37 fluorescence quenching of p7NC; format: biochemical; conditions: Trp-37 fluorescence, zinc-reconstituted p7NC
T1 construct: The NC protein of HIV-1 (MN) p7NC was expressed in E. coli; made in house; host or cells: E. coli (vector pMAL-c)
From the text: The NC protein of HIV-1 (MN) p7NC was expressed in E. coli. The coding sequence for HIV-1(MN) p7NC was cloned and expressed using an inducible E. coli promoter in the vector pMAL-c (New England Biolabs Inc., Beverly, Mass.). The protein was expressed as a maltose-binding fusion protein and released by proteolysis with Factor Xa. HIV-1(MN) p7NC was purified by HPLC and characterized, including complete amino acid sequence analysis. p7NC was purified by high-pressure liquid chromatography (HPLC) and reconstituted with two equivalents of zinc to generate native protein as described (M. F. Summers et al., Protein Sci. 1, 563 (1992)).
Coordination of Zn^+2 enhances the intrinsic fluorescence of the single tryptophan (Trp-37) in the second zinc finger. […] The initial phase of the reaction with Cu^+2 (T1/2<20 seconds) gave 70% quenching of the original fluorescence, followed by a much slower phase (T1/2 ca. 6 minutes), resulting in a final limiting quenching of 85%.
The first quenching phase was a second order reaction, whereas the second phase was independent of protein concentration or oxidizing species.

[1] = biological target: T2, HIV NC protein in intact virus (Human immunodeficiency virus type 1 group M subtype B, UniProt P05888); experiment: Cross-linking of NC protein in intact HIV (non-reducing gel-mobility shift, western blot); format: biochemical, HIV-1
T2 construct: endogenous in cells; host or cells: intact HIV virions
From the text: Purified concentrated retrovirus and antisera against the purified NC protein of the virus can be used to test the ability of a specific compound to penetrate the virus and react with the NC protein by forming disulfide complexes in the core of the virus. The compound is mixed with the whole retrovirus under reaction conditions appropriate for the compound. The virus is then removed from the reagent by centrifugation and disrupted in, e.g, standard SDS-PAGE sample buffer with (reduced) and without (non-reduced) 2-mercaptoethanol. The viral proteins are then separated by standard SDS-PAGE and the sample examined for the presence or absence of the monomeric NC protein in the non-reduced sample. Depending upon the virus used in the experiment and the conditions of electrophoresis, the NC protein can be visualized by protein staining methods, or by immuno-blot (e.g., western) methods. Compounds which react with the NC protein by attacking the zinc finger complexes and forming disulfide cross-linked products (i.e., which generate multimers in the mobility shift assay) inactivate the virus. Thus, compounds of interest (i.e., those which cause cross-linking) reduced the amount of monomeric NC protein detected.
In order to determine whether HIV-1MN was inactivated by NOBA, the virus was incubated with varying concentrations of NOBA (3.0, 0.3, 0.03 and 0 mM) as in Table 1. The reaction products were pelleted by centrifugation, and separated by SDS-PAGE under reducing (2% 2-mercaptoethanol, panel A), or non-reducing conditions (panel B). p7NC was visualized by immunoblot analysis using monospecific rabbit antisera to the purified NC proteins as per L. E. Henderson et al., J. Virol. 66:1856 (1992).
Disulfide reagents were further tested for their ability to disrupt NC structure in the virus, based on their ability to cause inter-NC cysteine disulfide bonds (i.e., cross-linking) in the intact virus. The formation of inter-NC cysteine disulfides creates NC multimers, which migrate through a non-reducing gel at a different rate than NC monomers, as described above. Intact HIV virus (generally 12.5 μM) was exposed to the specified reagent (generally 25 μM) for varying lengths of time and electrophoresed through a non-reducing SDS-polyacrylamide gel. HIV NC monomers and multimers were visualized by western blot analysis as described above in Example 3. The approximate time required to cross-link one-half of the NC proteins in the virus at the specified reaction conditions was then determined. […] The top number in the cells of the X-link column in Table 2 refers to the approximate time in minutes required for one-half of the HIV NC proteins to become cross-linked.

proviral DNA synthesis = conditions: cited from earlier work

NC(=O)c1cccc(N=O)c1 [NOBA, 3-nitrosobenzamide]
change in intrinsic fluorescence of p7NC on incubation (HIV-1 (MN) p7NC): rapid biphasic decrease in fluorescence | cross-linking of the HIV-1 NC protein in intact virus (gel-mobility shift), in words [1]: caused a cross-linking of the HIV-1 NC protein | amounts of detected p7NC under non-reducing conditions ([1]; HIV-1MN, NOBA 3.0, 0.3, 0.03 mM, immunoblot): decreased with increasing NOBA concentration | proviral DNA synthesis (proviral DNA synthesis): blocked
